Data reported in patent US8389481B2, “Glutamate-enhanced cell-penetrating peptides and methods of using same” (University of Medicine and Dentistry of New Jersey, priority 2008, dated 2013).
Several values for one entry are separate records, joined by “and”; a condition that tells them apart may be missing. Equal values may be shown once. Primed or numbered codes have the meaning given here. Ends that are not written are not given here. Peptide text beside a SMILES is read from it. * marks the point of attachment. {P353} = cell-penetrating peptide 353 (Glu-Oct6) attached at PNA N-terminus; {Lys-FITC} = C-terminal lysine carrying fluorescein (FITC); 5FAM = O=C1OC2(c3ccc(O)cc3Oc3cc(O)ccc32)c2ccc(C(=O)*)cc21; FITC′ = not defined here

Columns and labels:
Format in all cases: cell-based
[1] = system: LNCaP cells; experiment: Peptide uptake by live cells, flow cytometry (geometric MFI); details: 3 μM peptide, 1 hr (FIG. 1B)
Procedure: (§1) Uptake of peptides by live cells was compared by flow cytometry, using the exclusion dye 7-amino actinomycin D (7-AAD) to exclude dead cells from analyses.
(§2) Cells: DU-145 and LNCaP cells were the gift of Dr. James Turkson (University of South Florida, Tampa, Fla.). DU-145 cells were grown in DMEM/Ham's F12 (Invitrogen, Carlsbad, Calif.) plus 10% newborn bovine serum (Hyclone, Logan, Utah). LNCaP cells were maintained in RPMI-1640 (Invitrogen) plus fetal bovine serum (Hyclone). Cell viabilities were determined using fluorescein diacetate (Sigma Chemical Co., St. Louis, Mo.) and a Universal RIII fluorescence microscope (Zeiss, Jena, Germany).
(§3) Uptake and Fluorescence Quantification Studies: Peptides were added to subconfluent cultures of cells at times, temperatures, and concentrations indicated in experiments. Concentrations ranging from 0 to 3000 nM were assayed. Cells were analyzed in the presence of […] 7-AAD (eBioscience, San Digeo Calif.) to gate on live events. Fluorescence was quantified, after cells were harvested, using a FACScan flow cytometer. At least 10,000 events were acquired using CellQuest Pro software and an Apple Macintosh G4 dual coprocessor computer running OS X 10.3.9. Fluorescence detectors on the instrument were standardized prior to each acquisition run, so that fluorescence intensities from different days could be compared. Because the FACScan employs logarithmic amplifiers on the fluorescence detectors, the more accurate parameter with which to compare fluorescence intensities for different samples is the geometric mean fluorescence intensity (geometric MFI). In some studies, fixed cells (4% paraformaldehyde/DPBS) were analyzed on an Amnis ImageStream 200 imaging cytometer using IDEAS 3.0 software.

[2] = system: DU-145 cells; experiment: as above; details: for average geometric MFI: 300 nM peptides, 4° C., 4 hours (FIG. 2); for geometric MFI compared among the peptides (FIG. 1A): 500 nM peptides, 4 hrs incubation; for uptake of carboxydansyl peptide on coincubation with peptide 353: 300 nM each, 1 hr (FIG. 1D); for effect of NaN3 on uptake: 0.1 or 1% NaN3, 300 nM peptide
Procedure: as §1, §2, §3

[3] = system: LNCaP cells; experiment: Live cell imaging of nuclear localization (epifluorescence microscopy); details: 500 nM, 24 hrs incubation
Procedure: (§4) Since flow cytometry only gives data regarding total shifts in fluorescence of a population, imaging flow cytometry and live imaging microscopy studies were performed to determine if the NLS augmented nuclear accumulation of the peptides. Imaging flow cytometry was chosen to provide data on intracellular distribution of FITC-labeled peptides. Inverted epifluorescence microscopy was chosen to eliminate inadvertant artifacts that may arise from fixation, such as nuclear translocation. For these studies, the cell-permeable fluorochrome DRAQ5 was used because it readily enters and stains nuclei of viable cells. […] It was not retained in the plasma membrane (FIG. 3A). […] The translocation of peptides to nuclei was complete in the sense that FITC and DRAQ5 fluorescence colocalized in all viable cells, although cytoplasmic fluorescence was visible as well. The FITC distribution was somewhat punctuate in the cytoplasmic portion of cells, leading us to conclude that the peptide may be accumulating within endosomes. […]
(§5) Live Cell Imaging Studies: A Zeiss Axiovert 200 inverted phase-contrast microscope outfitted with epifluorescence was used for live imaging studies. […] Images were acquired and analyzed using Zeiss Axiovision software.

[4] = system: DU-145 cells; experiment: as above; details: 500 nM, 24 hrs incubation
Procedure: as §4, §5

[5] = system: DU-145 cells; experiment: Cell death determined by staining with 7-AAD; details: concentrations higher than 300 nM
Procedure: (§6) In order to determine if uptake of peptide 353 was receptor-mediated or receptor-specific in any way, Glu residues were substituted by Phe residues (peptide 361) or Asn residues (peptide 362). The resulting peptides were incubated at 0 to 3000 nM with DU-145 cells for 1 hr. Cells were then harvested and processed for analysis by flow cytometry. […] At 3000 nM, peptides 361 and 362 induced cell death in more than 70% of the cells (determined by staining with 7-AAD); in the case of peptide 361, over 95% of DU-145 cells were positive for 7-AAD; therefore only geometric MFI for concentrations up to 1000 nM are shown in the figure. […] The higher MFI observed for peptide 365 is likely due to the hydrophobicity of both the Phe residues and the dansyl fluorochrome. It was concluded from these experiments that peptide 353 bound to a cell-surface receptor through the glutamate residues.
as §3

[6] = Cell death determined by staining with 7-AAD; details: human, DU-145 cells; 3000 nM, 1 hr (FIG. 1C)
Procedure: as §6, §3

[7] = system: LNCaP cells; experiment: Imaging flow cytometry, intracellular distribution of FITC-labeled peptides; details: 250 nM, 4 hours
Procedure: (§7) FIG. 3A: DU-145 and LN-CaP cells were incubated with 250 nM peptides 351 or 353 for 4 hours, counterstained with 5 μM DRAQ 5, then fixed in paraformaldehyde and analyzed by imaging flow cytometry on an Amnis Imaging Cytometer. IDEAS software (Amnis) was used to generate and colorize the images. […] FIG. 3B: Live cell imaging of peptide 353 by DU-145 cells. 500 nM peptide 353 was incubated with DU-145 cells overnight (necessary for imaging purposes). Cells were washed with phenol red-free buffer, counter-stained with DRAQ5 at 10 μM, then examined under a Zeiss Axiovert 200 inverted phase contrast microscope with epifluorescence. The merged image confirms the presence of peptide 353 in nuclei. FIGS. 3C and D: DU-145 cells incubated with peptides 350 and 356, as described for FIG. 3B. Note the absence of FITC fluorescence in nuclei.
as §4
as §3, with “Concentrations ranging from 0 to 3000 nM were assayed.” left out, “At least 10,000 events were acquired using CellQuest Pro software and an Apple Macintosh G4 dual coprocessor computer running OS X 10.3.9.” left out

[8] = system: DU-145 cells; experiment: as above; details: 250 nM, 4 hours
Procedure: as §7, §4
as §3, with “Concentrations ranging from 0 to 3000 nM were assayed.” left out, “At least 10,000 events were acquired using CellQuest Pro software and an Apple Macintosh G4 dual coprocessor computer running OS X 10.3.9.” left out

[9] = 300 nM peptide, 4 hr, 37° C., NaN3 0%
[10] = 300 nM peptide, 4 hr, 37° C., NaN3 0.1%
[11] = 300 nM peptide, 4 hr, 37° C., NaN3 1.0%
[12] = 300 nM peptide, 4 hr, NaN3 0.1%
[13] = up to 300 nM, 1 hr, 37 ° C. (FIG. 1C), from approximately 40 without peptide
[14] = 300 nM peptide, 4 hr, NaN3 1.0%

EEEAAGRKRKKRT-FITC (EEEAAGRKRKKRT-{FITC′}) [Peptide 353, glutamate peptide linked by alanine linker to Oct6 NLS]
Geometric MFI [1]: 1500-2000 | uptake of carboxyfluorescein peptide 353 on coincubation ([2]; 300 nM 353 with 300 nM carboxydansyl peptide 365 or 366, 1 hr (FIG. 1D)): nearly unaltered uptake | Geometric MFI [2, 9]: 151 and 151.4 | Geometric MFI [2, 10]: 155.7 | Geometric MFI [2, 11]: 114 and 114.4 | % Inhibition ([2]; 300 nM peptide, 4 hr, NaN3 0%): 0% | % Inhibition [2, 12]: 0% | average geometric MFI [2]: 486 | geometric MFI compared among the peptides (FIG. 1A) [2]: significantly increased | Geometric MFI ([2]; 3 μM peptide, 1 hr (FIG. 1B)): 1500-2000 | accumulation in the nuclei [3]: accumulated in the nuclei | accumulation in the nuclei [4]: accumulated in the nuclei | cell death [5]: not seen

FFFAAGRKRKKRT-K-dansyl (FFFAAGRKRKKRTK-dansyl) [Peptide 365]
uptake of carboxydansyl peptide on coincubation with peptide 353 [2]: without concomitant uptake

C[C@H](NC(=O)[C@H](C)NC(=O)[C@H](CC(N)=O)NC(=O)[C@H](CC(N)=O)NC(=O)[C@@H](N)CC(N)=O)C(=O)NCC(=O)N[C@@H](CCCNC(=N)N)C(=O)N[C@@H](CCCCN)C(=O)N[C@@H](CCCNC(=N)N)C(=O)N[C@@H](CCCCN)C(=O)N[C@@H](CCCCN)C(=O)N[C@@H](CCCNC(=N)N)C(=O)N[C@H](C(=O)N[C@@H](CCCCNC(=O)c1ccc2c(c1)C(=O)OC21c2ccc(O)cc2Oc2cc(O)ccc21)C(=O)O)[C@@H](C)O [Peptide 362, NNNAAGRKRKKRT-FITC] (H-NNNAAGRKRKKRTK(5FAM)-OH)
Geometric MFI [2, 13]: ~100 | viability at 1 h, 3 µM [6]: < 50% | cell death [5]: not seen

EEE-FITC [Peptide 350]
Geometric MFI [2, 9]: 25.6 | Geometric MFI [2, 10]: 26.4 | Geometric MFI [2, 11]: 29.7 | % Inhibition ([2]; 300 nM peptide, 4 hr, NaN3 0%): 0% | % Inhibition [2, 12]: 0% | % Inhibition [2, 14]: 0% | geometric MFI compared among the peptides (FIG. 1A) [2]: lowest values | effect of NaN3 on uptake ([2]; 4 hr, 37° C.): no effect

GRKRKKRT-FITC (GRKRKKRT-{FITC′}) [Peptide 356]
Geometric MFI [2, 9]: 417.6 | Geometric MFI [2, 10]: 293 | Geometric MFI [2, 11]: 181 | % Inhibition ([2]; 300 nM peptide, 4 hr, NaN3 0%): 0% | % Inhibition [2, 12]: 29.8% | average geometric MFI [2]: 325 | geometric MFI compared among the peptides (FIG. 1A) [2]: not nearly as great as that of peptide 353

EEEAA-FITC (not fully specified; carboxyfluorescein label; Synthetically produced Glu peptide (Peptide 351))
Geometric MFI [2, 9]: 43.8 | Geometric MFI [2, 10]: 56.9 | Geometric MFI [2, 11]: 48.4 | % Inhibition ([2]; 300 nM peptide, 4 hr, NaN3 0%): 0% | % Inhibition [2, 12]: 0% | % Inhibition [2, 14]: 0% | geometric MFI compared among the peptides (FIG. 1A) [2]: lowest values | effect of NaN3 on uptake ([2]; 4 hr, 37° C.): no effect | accumulation in the cells when the plasma membrane was excluded [7]: much less accumulation | nuclei positive for DRAQ5 and FITC colocalization [7]: ~10% | accumulation in the cells when the plasma membrane was excluded [8]: much less accumulation | nuclei positive for DRAQ5 and FITC colocalization [8]: ~10%

NNNAAGRKRKKRT-K-dansyl (NNNAAGRKRKKRTK-dansyl) [Peptide 366]
uptake of carboxydansyl peptide on coincubation with peptide 353 [2]: without concomitant uptake

C[C@H](NC(=O)[C@H](C)NC(=O)[C@H](Cc1ccccc1)NC(=O)[C@H](Cc1ccccc1)NC(=O)[C@@H](N)Cc1ccccc1)C(=O)NCC(=O)N[C@@H](CCCNC(=N)N)C(=O)N[C@@H](CCCCN)C(=O)N[C@@H](CCCNC(=N)N)C(=O)N[C@@H](CCCCN)C(=O)N[C@@H](CCCCN)C(=O)N[C@@H](CCCNC(=N)N)C(=O)N[C@H](C(=O)N[C@@H](CCCCNC(=O)c1ccc2c(c1)C(=O)OC21c2ccc(O)cc2Oc2cc(O)ccc21)C(=O)O)[C@@H](C)O [Peptide 361, FFFAAGRKRKKRT-FITC] (H-FFFAAGRKRKKRTK(5FAM)-OH)
Geometric MFI [2, 13]: ~100 | viability at 1 h, 3 µM [6]: < 50% | cell death [5]: significant cell death

EEEAAKKK-FITC (EEEAAKKK-{FITC′}) [Peptide 352]
Geometric MFI [2, 9]: 58.6 | Geometric MFI [2, 10]: 61.8 | Geometric MFI [2, 11]: 47.4 | % Inhibition ([2]; 300 nM peptide, 4 hr, NaN3 0%): 0% | % Inhibition [2, 12]: 0% | % Inhibition [2, 14]: 19.1% | average geometric MFI [2]: 186 | geometric MFI compared among the peptides (FIG. 1A) [2]: significantly increased | effect of NaN3 on uptake ([2]; 4 hr, 37° C.): no effect

EEEAAGRKRKKRT-TATGATCTCCTCCGT-K-FITC (all peptide nucleic acid (PNA), 5' {P353}, 3' {Lys-FITC}) [Peptide 353-PNA]
MFI of the cells with increasing concentration ([2]; 0, 300, and 1000 nM, 18 hr (FIG. 4)): increased the MFI | MFI of small but highly fluorescent population of cells ([2]; 300 nM, 18 hr (FIG. 4)): greater than 10^3
